The results in this text go back to article PMC6412019, “Discovery of NV-5138, the first selective Brain mTORC1 activator” (Scientific Reports, 2019).

Each structure is given as a SMILES string. Entries after “also recorded” stand apart in the source; their conditions may differ.

One data set concerns the target T1, BCAT1 (Homo sapiens, UniProt P54687).
T1 construct: purchased OriGene TP319229
T1 sequence (P54687 1-386): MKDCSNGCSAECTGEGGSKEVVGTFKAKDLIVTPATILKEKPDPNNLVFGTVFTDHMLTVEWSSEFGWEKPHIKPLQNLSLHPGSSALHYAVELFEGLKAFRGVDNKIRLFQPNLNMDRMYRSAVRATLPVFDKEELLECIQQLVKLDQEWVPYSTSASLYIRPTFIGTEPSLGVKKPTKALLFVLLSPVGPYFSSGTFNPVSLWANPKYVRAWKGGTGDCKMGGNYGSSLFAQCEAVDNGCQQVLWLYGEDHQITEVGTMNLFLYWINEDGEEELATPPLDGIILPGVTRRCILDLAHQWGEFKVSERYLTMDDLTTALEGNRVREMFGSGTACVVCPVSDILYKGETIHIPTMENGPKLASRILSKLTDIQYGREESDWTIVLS
The data set can be described thus: BCAT enzymatic assay (substrate test), BCAT1. It counts as biochemical. To be noted: NADH oxidation at 340 nm; tested up to 1.5 mM. The method, then: BCAT exists in two isoforms, mitochondrial BCAT2 which is ubiquitously expressed, and cytosolic BCAT1, which is predominantly expressed in embryonic tissues and the adult brain. To determine whether NV-5138 is a substrate for BCAT isoforms, we established an in vitro enzymatic assay using purified BCAT1 and BCAT2 and performed the assay in the forward direction as described. […] The disappearance of absorbance at 340 nm due to NADH oxidation is measured continuously over time.
The assay buffer was dispensed into a 96-well plate and brought up to 37 °C for 10 min before adding BCAT1 or BCAT2 (72 ng) in 0.1 M potassium phosphate buffer. Absorbance at 340 nm was then read every minute for 30 min at RT using an Envision plate reader. Source of each reagents used can be found in Supplementary Information.

Another data set deals with T2, Sestrin2 (Homo sapiens, UniProt P58004).
T2 sequence (P58004 1-480): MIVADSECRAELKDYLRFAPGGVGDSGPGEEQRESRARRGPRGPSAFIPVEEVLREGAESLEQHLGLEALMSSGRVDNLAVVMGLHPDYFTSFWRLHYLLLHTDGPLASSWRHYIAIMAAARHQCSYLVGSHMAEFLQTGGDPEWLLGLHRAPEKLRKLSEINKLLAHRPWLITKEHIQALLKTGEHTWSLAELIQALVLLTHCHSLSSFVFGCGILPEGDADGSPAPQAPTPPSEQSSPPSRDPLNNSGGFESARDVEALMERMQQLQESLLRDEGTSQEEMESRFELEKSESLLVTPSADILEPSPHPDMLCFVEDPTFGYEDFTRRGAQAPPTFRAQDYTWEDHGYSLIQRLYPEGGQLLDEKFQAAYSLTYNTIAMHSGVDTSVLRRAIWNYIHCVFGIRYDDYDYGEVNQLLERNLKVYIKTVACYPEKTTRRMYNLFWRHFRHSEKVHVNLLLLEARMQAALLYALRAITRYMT
The data set can be described thus: Thermal shift assay of purified Sestrin2. It counts as binding. Set-up: Full-length, codon-optimized human Sestrin2 was cloned into a pMAL6H -C5XT bacterial expression vector; His6-MBP (TEV-cleavable) (N, cleaved yes); made in house; host or cells: Escherichia coli LOBSTR (DE3). To be noted: average +/- SD, n = 3, read-out: Average Tm shift; for ΔTm at 1 µM: compound concentration 1 µM; for ΔTm at 10 µM: compound concentration 10 µM; for ΔTm at 100 µM: compound concentration 100 µM. The method, then:
Accordingly, we synthesized novel binding ligands incorporating these structural features. These compounds were tested for Sestrin2 binding using a thermal shift assay and for their ability to activate mTORC1 in leucine-starved Human Embryonic Kidney (HEK)-293T cells. These studies led to the identification of NV-5138 – a novel small molecule activator of mTORC1 signaling (Fig. 1a).
Full-length, codon-optimized human Sestrin2 was cloned into a pMAL6H -C5XT bacterial expression vector. Protein was purified onto a HisTrap FF crude column (GE Healthcare) followed by anion exchange chromatography then further purified via size-exclusion chromatography. Further details can be found in Supplementary Information.
Full-length, codon-optimized human Sestrin2 was cloned into a pMAL6H -C5XT bacterial expression vector such that Sestrin2 became N-terminally fused with a Tobacco Etch Virus nuclear-inclusion-a endopeptidase (TEV)–cleavable His6-MBP tag. This vector was transformed into Escherichia coli LOBSTR (DE3) cells (Kerafast) ^1. Cells were grown at 37 °C to 0.6 OD, then protein production was induced with 0.2 mM IPTG at 18 °C for 12–14 h. Cells were collected by centrifugation at 6,000g, resuspended in lysis buffer (50 mM Tris-HCl, pH 8.5, 400 mM NaCl, 5 mM MgCl2, 1 mM dithiothreitol (DTT), 0.2% CHAPS, 10% glycerol and 1 tablet of protease inhibitor tablets per 50 ml (Complete Inhibitor tablets from Roche w/o EDTA)), homogenized and sonicated. The lysate was cleared by centrifugation at 15,000g for 45 min. The soluble fraction (~250 ml) was loaded onto a HisTrap FF crude column (GE Healthcare) at 2 ml/min followed by washing with lysis buffer at 4 ml/min. After washing, the protein was eluted in lysis buffer containing 300 mM imidazole at 4 ml/min. Fractions corresponding to the Sestrin2 protein were identified via SDS-PAGE and pooled. The eluted Sestrin2 was then incubated with TEV protease and dialyzed overnight at 4 °C into 50 mM Tris-HCl, pH 8.5, 400 mM NaCl, 5 mM MgCl2, 1 mM dithiothreitol (DTT), 0.1% CHAPS, 10% glycerol. To separate the N-terminal tag from the cleaved Sesrin2, from cleaved sample was then re-applied to the HisTrap FF crude column and flow-through collected. The protein was then subjected to anion exchange chromatography on an 8ml Mono Q column (GE Healthcare) with a linear NaCl gradient and then further purified via size-exclusion chromatography on a Superdex S200 26/60 column (GE Healthcare) equilibrated in running buffer (50 mM Hepes pH 7.4, 200 mM NaCl, 1 mM DTT, 2.5 mM MgCl2, and 5% glycerol).

For the compound `CC(C)(C[C@H](N)C(=O)O)C(F)F` [NV-5138, (S)-2-amino-5,5-difluoro-4,4-dimethylpentanoic acid], on BCAT1, the “transamination by BCAT1” value is reported as “no decrease in absorption at 340 nm; also recorded: did not observe any transamination”. On Sestrin2, the ΔTm at 1 µM is 0.57 ± 0.22 °C, the ΔTm at 10 µM was 3.27 ± 0.16 °C and the ΔTm at 100 µM is 6.17 ± 0.18 °C.
On to `CC(C)C[C@H](N)C(=O)O` [Leucine, L-leucine, reference compound], for which the “transamination by BCAT1” value at BCAT1 was “transaminated by BCAT1 and BCAT2”. Besides, at Sestrin2, the ΔTm at 1 µM worked out at 0.61 ± 0.59 °C, the ΔTm at 10 µM amounted to 3.64 ± 0.41 °C and the ΔTm at 100 µM was 6.49 ± 0.2 °C.
